This note sets out measurements from patent US9617269B2.

SMILES strings stand for the structures.

For this assay, the target named is phosphodiesterase IX (Homo sapiens (Human), UniProt O76083). Nature of the assay: Inhibition activity to the phosphodiesterase IX. It counts as biochemical. The following applies: concentration of the inhibitor when the inhibition rate reaches 50%.
phosphodiesterase IX, sequence (O76083 whole entry): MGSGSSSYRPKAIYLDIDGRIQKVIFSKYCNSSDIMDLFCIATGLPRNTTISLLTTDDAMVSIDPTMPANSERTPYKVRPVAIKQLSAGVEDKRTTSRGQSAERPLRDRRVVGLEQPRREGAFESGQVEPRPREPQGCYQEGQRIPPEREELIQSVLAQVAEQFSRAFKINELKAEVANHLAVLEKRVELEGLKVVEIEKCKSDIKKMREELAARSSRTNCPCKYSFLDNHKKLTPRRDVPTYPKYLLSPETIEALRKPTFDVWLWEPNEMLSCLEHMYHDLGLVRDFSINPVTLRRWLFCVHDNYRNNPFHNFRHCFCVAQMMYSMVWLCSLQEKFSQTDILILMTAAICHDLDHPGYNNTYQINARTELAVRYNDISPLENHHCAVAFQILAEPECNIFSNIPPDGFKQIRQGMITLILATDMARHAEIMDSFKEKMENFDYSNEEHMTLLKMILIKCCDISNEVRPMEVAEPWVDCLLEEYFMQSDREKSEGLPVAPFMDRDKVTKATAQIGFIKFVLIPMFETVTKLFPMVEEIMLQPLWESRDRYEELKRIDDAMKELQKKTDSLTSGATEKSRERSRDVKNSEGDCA

Procedure: Inhibition activities of all the N-substituted pyrazolo [3,4-d] pyrimidine ketone compounds according to the present invention to the phosphodiesterase IX are tested.

Consider `COc1ccc(NC(=O)C(C)Nc2nc3c(cnn3-c3ccccc3Cl)c(=O)[nH]2)cc1` (stereo not shown) [WYQ-94-D], for which the IC50 (in general, the point on the concentration scale where inhibition reaches its midpoint) was determined as 6 nM.
